According to patent publication US20180332847A1, “ANTIMICROBIAL METAL CARBOXYLATE-BENZISOTHIAZOLINONE MIXTURES” (Troy Corporation, priority 2017, published 2018):
“And” between values parts separate entries of the source, which are not always exact repeats. Equal values may be shown once.

Experiments:
Assay type in all cases: cell-based
Alternaria alternata = assay: Minimum Inhibitory Concentration (MIC) by spiral plater / spiral gradient endpoint against Alternaria alternata
Experimental: (§1) Synergistic Index=Qa/QA+Qb/QB [Equation No. 1] • where Qa=the quantity of component A used in a binary mixture that gives the desired effect • QA=the quantity of component A which when used alone gives the desired effect • Qb=the quantity of component B used in a binary mixture that gives the desired effect • QB=the quantity of component B which when used alone gives the desired effect
(§2) Minimum Inhibitory Concentration (“MIC”) for each of the antimicrobial compositions was determined against a test microbe, which in this case was a spore suspension of the fungus Alternaria alternata, with the aid of an Autoplate 4000 spiral plater that is commercially available from Spiral Biotech, Inc., Norwood, Mass., and its accompanying spiral gradient endpoint software (hereinafter referred to as “the SGE software”). The spiral plater automates the normal serial dilution method for determining MICs. Although the details of the SGE software are held confidentially by Spiral Biotech, Inc., they are believed to consistent with the principles set forth in “Measurement of MICs of antibacterial agents by spiral gradient endpoint compared with conventional dilution method” J. H. Paton, H. A. Holt, and M. J. Bywater—Int. J. Exp. Clin. Chemother, 1990.
Spore suspensions for the test microbe were prepared by growing Alternaria alternata on a Difco malt agar slant in an incubator for 1 week at 28° C. Spores were loosened by adding a small amount of buffer solution at pH 7.0 and scraping with a sterile nichrome wire loop. This process was repeated twice. The buffer solution included phosphate buffer and magnesium chloride, and was obtained commercially from Thomas Scientific Company, as Lot #023-0703.
Loosened spores were removed from the slant by aseptically pouring them into a sterile bottle containing 30 ml of the buffer solution and a volume of approximately 40 ml of 6 mm diameter borosilicate glass beads. The bead bottle was shaken to disperse the spores and adjusted to a final liquid volume of 50 ml. For use as a test inoculum, spore density was adjusted in distilled water blanks to that of a 0.5 McFarland nephelometer standard.
(§3) The spiral plater automatically applied 54.3 micro-liters of each antimicrobial composition of interest to the surface of 150 millimeter malt agar plates using an exponential application gradient. The concentration of the antimicrobial concentration was greatest near the center of the Petri plates and decreased toward the edges. Antimicrobial composition gradients were allowed to air dry at room temperature for 1 to 4 hours at 23° C. before inoculation with test microbe. Spiral gradient plates were inoculated by streaking with cotton swabs that had been soaked in test microbe spore suspension. Streaks were applied in a radial pattern, using a paper template generated by the SGE software to guide the application. Eight radii were inoculated per Petri plate. Each radius is considered as one replicated observation.
(§4) Inoculated spiral gradient plates were incubated for 48 hours in an incubator at 28° C. Visible growth of the test microbe developed along the radial streaks and ended where the concentration of the antimicrobial composition was sufficient to prevent growth. This growth endpoint value (expressed in mm as measured from center point of the Petri plate) was used to calculate MIC for the mixture, expressed as parts per million.
Utilizing the procedure described above in Example 1, Minimum Inhibitory Concentration (“MIC”) for each of the antimicrobial compositions was determined against a test microbe, which in this case was a spore suspension of the […] Alternaria alternata.

Candida albicans = assay: Minimum Inhibitory Concentration (MIC) by spiral plater / spiral gradient endpoint against Candida albicans
Experimental: as §1, §2, §3, §4
Utilizing the procedure described above in Example, Minimum Inhibitory Concentration (“MIC”) for each of the antimicrobial compositions was determined against a test microbe, which in this case was a spore suspension of the yeast Candida albicans., as described above in Example 1. Several antimicrobial compositions containing calcium gluconate, BIT, or both in water were investigated, as shown below in Table 3
Utilizing the procedure described above in Example 1, Minimum Inhibitory Concentration (“MIC”) for each of the antimicrobial compositions was determined against a test microbe, which in this case was a spore suspension of the yeast Candida albicans. Several antimicrobial compositions containing calcium glycerate, BIT, or both in water were investigated, as shown below in Table 11.
Utilizing the procedure described above in Example 1, Minimum Inhibitory Concentration (“MIC”) for antimicrobial compositions was determined against a test microbe, which in this case was a spore suspension of the yeast Candida albicans. Several antimicrobial compositions containing calcium glycerate, BIT, or both in water were investigated, as shown below in Table 23.
Utilizing the procedure described above in Example 1, Minimum Inhibitory Concentration (“MIC”) for each of the antimicrobial compositions was determined against a test microbe, which in this case was a spore suspension of the fungus Candida Albicans.

Saccharomyces cervisiae = assay: Minimum Inhibitory Concentration (MIC) by spiral plater / spiral gradient endpoint against Saccharomyces cervisiae; details: quantity of BIT used alone that gives the desired effect; calcium gluconate-BIT series; Saccharomyces cervisiae
Experimental: as §1
Minimum Inhibitory Concentration (“MIC”) for each of the antimicrobial compositions was determined against a test microbe, which in this case was a spore suspension of the fungus Alternaria alternata, with the aid of an Autoplate 4000 spiral plater that is commercially available from Spiral Biotech, Inc., Norwood, Mass., and its accompanying spiral gradient endpoint software (hereinafter referred to as “the SGE software”). […]
Inoculated spiral gradient plates were incubated for 48 hours in an incubator at 28° C. […] This growth endpoint value (expressed in mm as measured from center point of the Petri plate) was used to calculate MIC for the mixture, expressed as parts per million.
Utilizing the procedure described above in Example 1, Minimum Inhibitory Concentration (“MIC”) for each of the antimicrobial compositions was determined against a test microbe, which in this case was a spore suspension of the yeast Saccharomyces cervisiae. […]

`O=c1[nH]sc2ccccc12` [BIT, 1,2-benzisothiazol-3(2H)-one] gave a QB (Alternaria alternata; MIC of BIT alone for Alternaria alternata, used for SI (zinc ethylhexanoate series)) of 13 ppm, a QB (Alternaria alternata; MIC of BIT alone for Alternaria alternata, used for SI (zinc glycerate series)) of 8.3 ppm and a QB (Alternaria alternata; quantity of BIT used alone that gives the desired effect, calcium ethylhexanoate-BIT series, Alternaria alternata) of 13 ppm. The QB (Alternaria alternata; quantity of BIT used alone that gives the desired effect, calcium gluconate-BIT series, Alternaria alternata) was 13 ppm, the QB (Alternaria alternata; quantity of BIT used alone that gives the desired effect, calcium glycerate-BIT series, Alternaria alternata) was 85 ppm and the “ppm of BIT alone providing the same inhibition” value (Alternaria alternata; zinc ethylhexanoate-BIT series, Alternaria alternata) was 13 ppm. The “ppm of BIT alone providing the same inhibition” value (Alternaria alternata; zinc glycerate-BIT series, Alternaria alternata) was 8.3 ppm, the QB (Candida albicans; MIC of BIT alone for Candida albicans (average of Trials 1, 2), used for SI (zinc ethylhexanoate series)) was 19 ppm and the QB (Candida albicans; MIC of BIT alone for Candida albicans, used for SI (zinc glycerate series)) was 13 ppm and 16 ppm. The QB (Candida albicans; quantity of BIT used alone that gives the desired effect, calcium gluconate-BIT series, Candida albicans) was 23 ppm, the QB (Candida albicans; quantity of BIT used alone that gives the desired effect, calcium glycerate-BIT series, Candida albicans) was 85 ppm and the “ppm of BIT alone providing the same inhibition” value (Candida albicans; zinc ethylhexanoate-BIT series, Candida albicans) was 19 ppm. For the same compound, the “ppm of BIT alone providing the same inhibition” value (Candida albicans; zinc glycerate-BIT series, Candida albicans) was 13 ppm and the QB (Saccharomyces cervisiae) was 61 ppm.
